Assay [1] is described as follows: Suppression of Phenylbenzoquinone Irritant-Induced Writhing (PBQ). It is filed as in vivo, Carworth Farms CF-1 mice. Particulars: subcutaneously, mouse; for Analgesic Activity % Protection, PBQ: at 56 mg./kg.; for ED50: sc, PBQ-induced writhing, read-out: Analgesic Activity ED50, PBQ. On the procedure: Suppression of Phenylbenzoquinone Irritant-Induced Writhing
Groups of 5 Carworth Farms CF-1 mice are pretreated subcutaneously or orally with saline, morphine, codeine or the test compound. Twenty minutes (if treated subcutaneously) or fifty minutes (if treated orally) later, each group is treated with intraperitoneal injection of phenylbenzoquinone, an irritant known to produce abdominal contractions. The mice are observed for 5 minutes for the presence or absence of writhing starting 5 minutes after the injection of the irritant. MPE50 's of the drug pretreatments in blocking writhing are ascertained.
(§1) Results of the above tests are recorded as percent maximum possible effect (%MPE). The %MPE of each group is statistically compared to the %MPE of the standard and the predrug control values. The %MPE is calculated as follows: [formula]
(§2) The following abbreviations are used in the Tables: PBQ=phenylbenzoquinone-induced writhing; TF=tail flick; HP=hot plate; RTC=rat tail clamp; and FJ=flinch jump.
(§3) Single values in the tables are ED50 's. A number followed by a second number in parentheses reports the % protection observed at a given dose. Thus, 31(56) indicates 31% protection at a dose of 56 mg./kg. of body weight.
In general terms: An intraperitoneal irritant provokes the stretching counted in writhing tests.

A short description of the next assay: "Flinch-Jump" Test (FJ). Particulars: sc; subcutaneously; rat flinch jump; read-out: Analgesic Activity ED50, FJ. It is filed as in vivo, male albino rats, Charles River (Sprague-Dawley) CD strain.
Description: A modification of the flinch-jump procedure of Tenen, Psychopharmacologia, 12, 278-285 (1968) is used for determining pain thresholds. Male albino rats (175-200 g.) of the Charles River (Sprague-Dawley) CD strain are used. Prior to receiving the drug, the feet of each rat are dipped into a 20% glycerol/saline solution. The animals are then placed in a chamber and presented with a series of 1-second shocks to the feet which are delivered in increasing intensity at 30-second intervals. These intensities are 0.26, 0.39, 0.52, 0.78, 1.05, 1.31, 1.58, 1.86, 2.13, 2.42, 2.72 and 3.04 mA. Each animal's behavior is rated for the presence of (a) flinch, (b) squeak and (c) jump or rapid forward movement at shock onset. Single upward series of shock intensities are presented to each rat just prior to, and at 0.5, 2, 4 and 24 hours subsequent to drug treatment.
as §1, §2, §3

The nature of assay [2]: Haffner Tail Pinch Procedure (rat tail clamp, RTC). Particulars: for ED50: sc, subcutaneously, rat tail clamp, read-out: Analgesic Activity ED50, RTC. Type of assay: in vivo, male albino rats, Charles River (Sprague-Dawley) CD strain. On the procedure:
Effect on the Haffner Tail Pinch Procedure
A modification of the procedure of Haffner, Experimentelle Prufung Schmerzstillender. Deutch Med. Wschr., 55, 731-732 (1929) is used to ascertain the effects of the test compound on aggressive attacking responses elicited by a stimulus pinching the tail. Male albino rats (50-60 g.) of the Charles River (Sprague-Dawley) CD strain are used. Prior to drug treatment, and again at 0.5, 1, 2 and 3 hours after treatment, a Johns Hopkins 2.5-inch "bulldog" clamp is clamped onto the root of the rat's tail. The endpoint at each trial is clear attacking and biting behavior directed toward the offending stimulus, with the latency for attack recorded in seconds. The clamp is removed in 30 seconds if attacking has not yet occurred, and the latency of response is recorded as 30 seconds. Morphine is active at 17.8 mg./kg. (i.p.).
as §1, §2, §3

Assay [3] can be described thus: Mouse Tail Flick Analgesic Testing (TF). Type of assay: in vivo, mice. The following applies: for ED50: sc; for ED50 / Analgesic Activity % Protection, TF: subcutaneously, mouse tail flick; for Analgesic Activity % Protection, TF: at 10 mg./kg.
Description: (b) Mouse Tail Flick Analgesic Testing
Tail flick testing in mice is modified after D'Amour and Smith, J. Pharmacol. Exp. Ther., 72, 74-79 (1941) using controlled high intensity heat applied to the tail. Each mouse is placed in a snug-fitting metal cylinder, with the tail protruding through one end. This cylinder is arranged so that the tail lies flat over a concealed heat lamp. At the onset of testing an aluminum flag over the lamp is drawn back, allowing the light beam to pass through the slit and focus onto the end of the tail. A timer is simultaneously activated. The latency of a sudden flick of the tail is ascertained. Untreated mice usually react within 3-4 seconds after exposure to the lamp. The end point for protection is 10 seconds. Each mouse is tested at 0.5 and 2 hours after treatment with morphine and the test compound. Morphine has an MPE50 of 3.2-5.6 mg./kg. (s.c.).
as §1, §2, §3

Assay [4] in a line: Mouse Hot Plate Analgesic Testing (HP). Details: key to Analgesic Activity, HP (IA@10): IA: inactive. Type of assay: in vivo, mice. The protocol: (a) Mouse Hot Plate Analgesic Testing
The method used is modified after Woolfe and MacDonald, J. Pharmacol. Exp. Ther., 80, 300-307 (1944). A controlled heat stimulus is applied to the feet of mice on a 1/8-inch thick aluminum plate. A 250 watt reflector infrared heat lamp is placed under the bottom of the aluminum plate. A thermal regulator, connected to thermistors on the plate surface, programs the heat lamp to maintain a constant temperature of 57° C. Each mouse is dropped into a glass cylinder (61/2-inch diameter) resting on the hot plate, and timing is begun when the animal's feet touch the plate. The mouse is observed at 0.5 and 2 hours after treatment with the test compound for the first "flicking" movements of one or both hind feet, or until 10 seconds elapse without such movements. Morphine has an MPE50 =4-5.6 mg./kg. (s.c.).
as §1, §2, §3

Setting [5] is: subcutaneously, at 10 mg./kg., mouse hot plate.

Each structure is given as a SMILES string.

Take `CCCCCCC(C)(C)c1ccc(C2(C)CCCC(=O)C2)c(O)c1` (stereo not drawn) [3-[4-(1,1-Dimethylheptyl)-2-hydroxyphenyl]-3-methylcyclohexanone]: the “Analgesic Activity % Protection, PBQ” value in assay [1] is on record as 31%.

Consider `CCCCCCC(C)(C)c1ccc(C2=CC(=O)CCC2)c(O)c1` [3-[4-(1,1-Dimethylheptyl)-2-hydroxyphenyl]cyclohex-2-enone], for which, in assay [1], the “Analgesic Activity % Protection, PBQ” value is 20%.

The ED50 is the dose that gives a 50% effect, or the effect in half of the subjects. With `CC(CCCc1ccccc1)Oc1ccc(C2CCCC(=O)C2)c(O)c1` (stereo not drawn) [3-[2-hydroxy-4-(2-(5-phenylpentyloxy))phenyl]cyclohexanone], the ED50 in assay [1] is at least 56 mg/kg.

In the case of `CCCCCCC(C)(C)c1ccc([C@]2(C)CCC[C@H](O)C2)c(O)c1` (relative stereo) [Z-3-[4-(1,1-dimethylheptyl)-2-hydroxyphenyl]-3-methylcyclohexanol], the 50% effective dose (ED50) in assay [1] was at least 56 mg/kg.

As to `O=C1CCCC(c2ccc(O)cc2O)C1` (stereo not drawn) [x=1; A+B=oxo; R2=H; R3=H; Z=O; W=H, 3-(2,4-Dihydroxyphenyl)cyclohexanone], in assay [1], the “Analgesic Activity % Protection, PBQ” value is 32%.

For the compound `Oc1cc(OCCCCc2ccccc2)ccc1[C@@H]1CCC[C@H](O)C1` (relative stereo) [cis-3-[2-Hydroxy-4-(4-phenylbutyloxy)phenyl]cyclohexanol], the median effective dose (ED50) in assay [1] was at most 56 mg/kg.

As to `CCCCCCC(C)(C)c1ccc([C@H]2CCC[C@H](O)C2)c(O)c1` (relative stereo) [trans-3-[4-(1,1-Dimethylheptyl)-2-hydroxyphenyl]cyclohexanol], the ED50 in assay [1] turned out to be 3.8 mg/kg.

For `CCCCCCC(C)(C)c1ccc([C@@H]2CC[C@H](O)C2)c(O)c1` (relative stereo) [cis-3-[4-(1,1-Dimethylheptyl)-2-hydroxyphenyl]cyclopentanol], the “Analgesic Activity % Protection, PBQ” value in assay [1] came to 57%.

Turning to `CCCCCCC(C)(C)c1ccc([C@@H]2CCC[C@H](O)C2)c(O)c1` (relative stereo) [cis-3-[4-(1,1-dimethylheptyl) 2-hydroxyphenyl]cyclohexanol], the ED50 turned out to be 4 mg/kg in the assay “"Flinch-Jump" Test (FJ)”, 4.7 mg/kg in assay [2], 1.1 mg/kg in assay [1] and 6.8 mg/kg in assay [3].

As for `CCCCCCC(C)(C)c1ccc(C2CCCC(=O)C2)c(OCc2ccccc2)c1` (stereo not drawn) [3-[2-Benzyloxy-4-(1,1-dimethylheptyl)phenyl]cyclohexanone], the “Analgesic Activity % Protection, PBQ” value in assay [1] is given as 20%.

As for `CCCCCCC(C)(C)c1ccc([C@H]2CC[C@H](O)C2)c(O)c1` (relative stereo), the “Analgesic Activity % Protection, PBQ” value in assay [1] was 36%.

On to `Oc1cc(OCCCCc2ccccc2)ccc1[C@H]1CCC[C@H](O)C1` (relative stereo), for which the median effective dose (ED50) in assay [1] was at least 56 mg/kg.

For `CC(CCCc1ccccc1)Oc1ccc([C@H]2CCC[C@H](O)C2)c(O)c1` (stereo partly drawn), the “Analgesic Activity % Protection, PBQ” value in assay [1] was 28%.

Regarding `CCCCCCC(C)(C)c1ccc([C@@H]2C[C@@H](O)CC[C@H]2C)c(O)c1` (relative stereo) [trans,trans-3-[4-(1,1-dimethylheptyl)-2-hydroxyphenyl]-4-methylcyclohexanol], the ED50 in assay [1] came out at 0.5 mg/kg.

For the compound `CCCCCCC(C)(C)c1ccc(C2CCCCC(=O)C2)c(O)c1` (stereo not drawn) [3-[4-(1,1-Dimethylheptyl)-2-hydroxyphenyl]cycloheptanone], the ED50 in “"Flinch-Jump" Test (FJ)” worked out at 10.8 mg/kg; in assay [2], 4.4 mg/kg; in assay [1] it was 2.15 mg/kg. In assay [4] (setting [5]), the “Analgesic Activity % Protection, HP” value was determined as 33%. Moreover, the “Analgesic Activity % Protection, TF” value in assay [3] was determined as 58%.

For `CCCCCCC(C)(C)c1ccc([C@@H]2CC(=O)CC[C@@H]2C)c(O)c1` (relative stereo) [cis-3-[4-(1,1-Dimethylheptyl)-2-hydroxyphenyl]-4-methylcyclohexanone], in assay [1], the ED50 was 1.51 mg/kg.

`CCCCCCC(C)(C)c1ccc(C2CCCC(=O)C2)c(O)c1` (stereo not drawn) [3-[4-(1,1-Dimethylheptyl)-2-hydroxyphenyl]cyclohexanone]: the ED50 stood at 4.5 mg/kg in assay [1] and 15.3 mg/kg in assay [3].

Consider `CC(CCCc1ccccc1)Oc1ccc([C@@H]2CCC[C@H](O)C2)c(O)c1` (stereo partly drawn) [cis-3-[2-hydroxy-4-(2-(5-phenylpentyloxy))phenyl]cyclohexanol], for which the median effective dose (ED50) in assay [1] is 38 mg/kg.

For `CCCCCCC(C)(C)c1ccc([C@H]2C[C@@H](O)CC[C@@H]2C)c(O)c1` (relative stereo) [cis,trans-3-[4-(1,1-dimethylheptyl)-2-hydroxyphenyl]-4-methylcyclohexanol], the median effective dose (ED50) in assay [1] is at most 1 mg/kg.

Take `CCCCCCC(C)(C)c1ccc([C@@H]2CCCC[C@H](O)C2)c(O)c1` (relative stereo) [cis-3-[4-(1,1-dimethylheptyl)-2-hydroxyphenyl]cycloheptanol]: the ED50 is 3.5 mg/kg in “"Flinch-Jump" Test (FJ)”, 7.7 mg/kg in assay [2] and 1.5 mg/kg in assay [1]. In addition, the “Analgesic Activity % Protection, HP” value in assay [4] (setting [5]) was determined as 27%. Moreover, in assay [3], the “Analgesic Activity % Protection, TF” value is listed as 32%.

On to `CCCCCCC(C)(C)c1ccc(C2CCC(=O)C2)c(O)c1` (stereo not drawn) [3-[4-(1,1-Dimethylheptyl)-2-hydroxyphenyl]cyclopentanone], for which the “Analgesic Activity % Protection, PBQ” value in assay [1] stood at 15%.

For the compound `CCCCCCC(C)(C)c1ccc([C@H]2CCCC[C@H](O)C2)c(O)c1` (relative stereo) [trans-3-[4-(1,1-dimethylheptyl)-2-hydroxyphenyl]cycloheptanol], the figures for the ED50 (in “"Flinch-Jump" Test (FJ)”; in assay [2]; in assay [1]) were 5.4 mg/kg, 5.6 mg/kg and 1.53 mg/kg, respectively. Moreover, the “Analgesic Activity, HP (IA@10)” value in assay [4] (setting [5]) is “IA”. The “Analgesic Activity % Protection, TF” value in assay [3] was 65%.

As to `CN1CC[C@]23c4c5ccc(O)c4O[C@H]2[C@@H](O)C=C[C@H]3[C@H]1C5` [Morphine, reference compound], the “activity in Haffner tail pinch” value in assay [2] (17.8 mg./kg. (i.p.), rat) is given as “active”. Moreover, in assay [4] (s.c., mouse), the “MPE50, hot plate” value lay within 4 to 5.6 mg/kg. Besides, in assay [3] (s.c., mouse), the “MPE50, tail flick” value lay in the range of 3.2 to 5.6 mg/kg.

Regarding `COC12CCCC(C1)c1ccc(O)cc1O2` (stereo not drawn) [x=1; A+B=oxo^(c); R2=H; R3=H; Z=O; W=H, 3-(2,4-Dihydroxyphenyl)cyclohexanone Methyl Ketal], the “Analgesic Activity % Protection, PBQ” value in assay [1] is 43%.
